Each block holds one substance with its values, some of them ahead of it. No end group written: not given here.
How the values were obtained:
[1] = system: human IgG subclasses (IgG1, IgG2, IgG3 and IgG4) and human intravenous immunoglobulins; assay: assay akin to ELISA with (peptide)4 SA-HRP complexes on human IgGs; format: binding; settings: for binding of biotinylated synthetic peptides to human IgGs: C-terminal linker SEQ ID NO: 181 biotinylated, tetrameric (peptide)4 SA-HRP complexes; for binding compared with the parental peptide SEQ ID NO: 2: biotinylated synthetic peptides, (peptide)4 SA-HRP complexes, human IgGs
Experimental: (§1) The binding activity of the described biotinylated synthetic peptides to different immunoglobulins was evaluated using an assay akin to ELISA. Wells were coated with the different subclasses of human IgGs or human intravenous immunoglobulins. All the wells were blocked with BSA. A biotinylated synthetic peptide and horseradish peroxidase (HRP)-conjugated streptavidin (SA-HRP) were mixed in advance at molar ratio of 4:1 to formulate tetrameric (peptide)4 SA-HRP complexes and then the mixtures were added to individual wells. After washing, the (peptide)4 SA-HRP complexes were detected with TMB solution.

[2] = system: human IgG Fc fragment and native human IgGs; assay: pull-down assay with peptide-coated streptavidin paramagnetic beads; settings: versus parent peptide SEQ ID NO: 2
Experimental: Selected peptides (SEQ ID NO: 2, SEQ ID NO: 30, and SEQ ID NO: 26) with biotin attached via epsilon-amino group of C-terminal amidated lysine in added linker SEQ ID NO: 181 were synthesized and coupled to streptavidin-coated paramagnetic beads. The same paramagnetic beads without addition of peptide and the same paramagnetic beads coupled with unrelated biotinylated peptide SEQ. ID 185 were used as negative controls. First, the Fc fragment of human antibodies (2 μg) was spiked into PBS and incubated with peptide-coated paramagnetic beads. The beads were then pelleted, washed with 0.1% PBST, and the bound material was eluted with acidic buffer (0.2 M glycine/HCl, pH 2.2). The low pH eluate was immediately neutralized with 1M Tris/HCl, pH 9.1. The eluates obtained from pull-down assay were analyzed by DotBlot assay and Western blotting using polyclonal goat anti-human IgG (H+L) HRP conjugate for detection (results not shown). Equivalent pull-down assay was carried out also from serum free DMEM growth medium spiked with human Fc fragment (2 μg) with peptide SEQ ID NO: 2 (FIG. 11). Additionally, the pull-down assay was also made from intact human sera. The presence of human IgGs in the eluate was confirmed by Coomassie blue staining (FIG. 13) and Western blot analysis (FIG. 12) using HRP-conjugated goat anti-human (H+L) antibodies (BioRad).

human IgG Fc fragment [3] = assay: competitive phage FLISA with Staphylococcal protein A; format: binding
Experimental: SpA is known to interact specifically with the region at the CH2-CH3 interface of immunoglobulins. Wells of the black Nunc MaxiSorp microtiter plate were either coated with human IgG Fc fragment or left uncoated (controls). Wells were blocked with BSA and contacted with purified fluorescein-labelled phage clone (the labelling procedure was adapted from the instructions of FITC manufacturer, Sigma-Aldrich). Phage was allowed to compete for the Fc binding with SpA in concentrations 1 μM, 100 nM or 10 nM. After 1 h-incubation at room temperature, the content was discarded and wells were washed with 0.1% PBST and finally filled with PBS. Fluorescence intensities in individual wells were measured at 510 nm upon excitation at 485 nm. The experiment was performed in triplicate.

human IgG Fc fragment [4] = assay: phage ELISA of phage-displayed peptides on human Fc fragment; format: binding; settings: peptide displayed on phage; absorbance at 450 nm
Excerpt: Three different phage display libraries were subjected to separate panning processes according to the protocol known to one skilled in the art. Various Fc-binding peptides were selected by targeting biotin-conjugated human Fc fragment prepared by random biotinylation of amine residues using EZ-Link™ Sulfo-NHS-SS-Biotin (Thermo Fisher Scientific, Rockford, IL, USA). After three rounds of affinity selection, individual clones were picked for phage Enzyme Linked Immuno-Sorbent Assay (ELISA) in order to evaluate their Fc fragment binding ability.
(§2) Wells of a 96-well microplate (Nunc, Maxisorp) were either coated with human Fc fragment solution or streptavidin as negative control. The wells were blocked with BSA and contacted with amplified population of each individual clone. Bound phages were detected by the addition of horseradish peroxidase (HRP)-conjugated anti-M13 monoclonal antibodies using the chromogenic substrate (3,3′,5,5′-tetramethylbenzidine (TMB)) solution, and absorbance at 450 nm was measured.
The experiment was performed in triplicate.
In order to investigate the contribution of individual amino acid residues of the truncated peptide SEQ ID NO: 2 to the Fc binding, alanine scanning strategy was carried out. […] However, we determined specific positions where alanine substitutions were well tolerated in terms of preserving binding activity. […]

[5] = system: human IgGs of different subclasses (IgG1, IgG2, IgG3 and IgG4); assay: phage ELISA on subclasses of native human IgGs; format: binding; settings: peptide displayed on phage as P3 fusion
Experimental: as §2
(§3) The binding activity of phage clone displaying the minimized peptide SEQ ID NO: 2, was further evaluated by phage ELISA (as described above) using different subclasses of native human IgGs and different therapeutic monoclonal antibodies. BSA, avidin and SA were used as targets in negative control wells.

BSA, avidin and SA = assay: phage ELISA on negative control targets; format: binding; settings: peptide displayed on phage
Experimental: as §2, §3

[6] = system: therapeutic monoclonal antibodies; assay: phage ELISA on therapeutic monoclonal antibodies; format: binding; settings: peptide displayed on phage as P3 fusion
Experimental: as §2, §3

[7] = system: IgGs of different species (mouse, donkey, rabbit and sheep); assay: assay akin to ELISA with peptide SA-HRP complexes on IgGs of animal species; format: binding; settings: biotinylated synthetic peptide complexed to SA-HRP, sheep IgG
Experimental: as §1
Additionally, the binding activity of the synthetic peptide SEQ ID NO: 2 to immunoglobulins of different animal species (mouse, rabbit, donkey, and sheep) was evaluated by an assay akin to ELISA essentially as described above. Peptides SEQ ID NO: 184 and SEQ ID NO: 185 represent two control biotin-labelled synthetic peptides with unrelated amino acids sequences.

human Fc fragment = assay: surface plasmon resonance (BIAcore X100), peptide immobilized via streptavidin; format: binding; settings: 25° C; Fc 10-160 nM, single cycle
Experimental: Interaction between the synthetic biotinylated peptide ligand with amino acid sequence identical to SEQ ID NO: 2 and human Fc fragment was analyzed by surface plasmon resonance (SPR) using BIAcoreX100 (BIAcore) at 25° C. Biotinylated synthetic peptide of the present invention was immobilized to the matrix indirectly through streptavidin. Streptavidin (SA) was immobilized to the surface of CM-5 chip through random amine coupling according to the manufacturer's recommendations to achieve a stable response corresponding to approximately 4000 resonance units. The first cell surface was prior activated and deactivated and used as a reference cell during injections. After successful covalent immobilization of SA to dextran matrix via amino groups, a 120 nM solution (pH 5) of biotinylated synthetic peptide SEQ ID NO: 2 was injected over a sensor chip SA to immobilize the peptide onto the chip. The amount of immobilized peptide was adjusted to the stable response corresponding to approximately 200 RU. Subsequently, solutions of human Fc fragment (the analyte) of various concentrations (10 nM, 20 nM, 40 nM, 80 nM, and 160 nM) in running buffer (0.005% P20 in PBS) were injected at a flow rate of 10 μL/min at through flow cells in a manner known as single cycle. Binding reaction between human Fc fragment and the peptide was recorded. […]

Substance: SpA: Staphylococcal protein A; cell wall constituent protein derived from Staphylococcal aureus [reference compound]
- inhibition of binding of FITC-labelled phage clone SEQ ID NO: 1 to immobilized human IgG Fc (human IgG Fc fragment [3]; SpA 1 μM, 100 nM or 10 nM, 1 h room temperature): the higher the concentration of SpA added, the more effectively is binding of the phage clone to human IgG Fc fragment inhibited

Substance: AGNGSYWYQVWF [SEQ ID NO: 1]
- relative binding of phage clones to human IgG Fc (phage ELISA) (human IgG Fc fragment [4]): strongest binding phage clone
- binding site on Fc fragment relative to SpA (human IgG Fc fragment [3]; inferred from competition with SpA): at least partially overlap

The next lines start with results.

- binding of biotinylated synthetic peptides to human IgGs [1]: specifically bound to human IgGs
- binding compared with the parental peptide SEQ ID NO: 2 [1]: significantly increased binding
Substance: GSYWYDVWF (not fully specified (C-terminus)) [SEQ ID NO: 26]
- trapping efficiency in pull-down assay [2]: significantly higher than the parent peptide SEQ ID NO: 2

- binding of biotinylated synthetic peptides to human IgGs [1]: specifically bound to human IgGs
- binding compared with the parental peptide SEQ ID NO: 2 [1]: significantly increased binding
Substance: GSYWYEVWF (not fully specified (C-terminus)) [SEQ ID NO: 30]

- binding to human IgG subclasses (phage ELISA) [5]: strongly bound
- binding of biotinylated synthetic peptides to human IgGs [1]: specifically bound to human IgGs
- binding to negative controls (phage ELISA) (BSA, avidin and SA): no significant binding
- binding to tested therapeutic monoclonal antibodies (phage ELISA) [6]: strongly bound
- binding to IgGs of different animal species [7]: specifically bound
- binding of human Fc to immobilized peptide (SPR) (human Fc fragment): exhibited binding to human Fc
Substance: GSYWYQVWF (H-GSYWYQVWF; not fully specified (C-terminus)) [SEQ ID NO: 2]
- dissociation rate (SPR) (human Fc fragment): slow

— patent US12195512B2, “Affinity ligands for antibody Fc region” (Univerza v Ljubljani, priority 2018, dated 2025)
